# Measured values: ChEMBL document CHEMBL1122941, “Design, synthesis, and pharmacological activities of 2-substituted 4-phenylquinolines as potential antidepressant drugs” (J Med Chem, 1985)
# What was measured:
# [1] = system: Mus musculus; experiment: Effective dose was evaluated for its antagonism to reserpine induced hypothermia in mice by intraperitoneal administration; type: functional; conditions: ip
# [2] = Lethal dose was evaluated against reserpine induced hypothermia in mice by intraperitoneal administration; type: toxicity, organism-based; conditions: mouse, in vivo, ip
# [3] = Therapeutic index as the ratio of LD50 to that of ED50 values.
SMILES,ED50 [1] [mg/kg],LD50 [2] [mg/kg],therapeutic index (LD50/ED50) [3]
CN(C)CCCN1c2ccccc2CCc2ccccc21 [IMIPRAMINE],21,–,–
Cl.c1ccc(-c2cc(N3CCNCC3)nc3ccccc23)cc1,12,152,12.7
CN(C)CCOc1cc(-c2ccccc2)c2ccccc2n1.Cl,18.5,202,10.9
c1ccc2nc(N3CCNCC3)ccc2c1 [QUIPAZINE],35.4,135,–
CN(C)CCCN(C)c1cc(-c2ccccc2)c2ccccc2n1.Cl,> 50,110,–
O=c1n(CCCN2CCN(c3cccc(Cl)c3)CC2)nc2ccccn12 [TRAZODONE],> 50,–,–
CN(C)CCN(C)c1cc(-c2ccccc2)c2ccccc2n1.Cl,27,98,3.63
CN(C)CCCNc1cc(-c2ccccc2)c2ccccc2n1.Cl,> 50,100,–
CN(C)CCCOc1cc(-c2ccccc2)c2ccccc2n1.Cl,> 50,200,–
CN(C)CCSc1cc(-c2ccccc2)c2ccccc2n1.Cl,42.1,198,4.7
CCN(CC)Cc1cc(-c2ccccc2)c2ccccc2n1.Cl,> 50,163,7.76
CN(C)CCCSc1cc(-c2ccccc2)c2ccccc2n1.Cl,> 50,189,–
CN(C)CCNc1cc(-c2ccccc2)c2ccccc2n1.Cl,26,102,3.92
Cl.ClCCCN1CCN(c2cc(-c3ccccc3)c3ccccc3n2)CC1,18,385,21.4
Cl.O=c1n(CCCN2CCN(c3cc(-c4ccccc4)c4ccccc4n3)CC2)nc2ccccn12,40.2,390,9.7
